Values after ≈ are worked out from the molar mass of the structure shown. Read-outs that look alike come from different tables or passages of the source.
What was measured:
[1] = test system: measles virus (MeV) recombinant; assay: microbe, parasite or virus in culture; format: cell-based; conditions: for EC50: Measles morbillivirus
[2] = microbe, parasite or virus in culture; format: cell-based; conditions: Influenza A virus, WSN, read-out: EC50 WSN
[3] = in vitro
[4] = test system: measles virus (MeV); assay: measles virus cytopathic effect (CPE) reduction assay; format: cell-based; conditions: Measles morbillivirus, read-out: MeV (CPE) 50% inhibitory concentration
Procedure: A small set of compounds was synthesized based on variations of 1 by replacing the p-methoxyphenyl group with other substituted phenyl rings or heterocyclic rings. The compounds were initially assayed in two screening assays: (1) a measles virus cytopathic effect (CPE) reduction assay and (2) a solubility assay based on laser nephelometry. Unfortunately, compounds with the highest aqueous solubilities (>100 µg/mL) had the poorest antiviral activity (i.e., 18a and 18e, Table 1).

[5] = set-up: method as in earlier work; conditions: ref 15 (Pharmacokinetics Study of JMN3-003. Unpublished results); cited from earlier work
[6] = physchem
[7] = test system: MeV; assay: virus yield reduction assay; format: cell-based; conditions: Measles morbillivirus, read-out: MeV 50% inhibitory concentration, virus yield reduction assay
[8] = averages of four experiments, highest concentration assessed 75 μM
[9] = pH 3, aqueous buffer, kinetic from dmso stock
[10] = pH 5, aqueous buffer, kinetic from dmso stock
[11] = pH 7.4, aqueous buffer, kinetic from dmso stock

SMILES	EC50 ([1]; read-out: EC50 MeV) [nM]	EC50 [2] [nM]	CC50 [3] [nM]	IC50 [4, 8] [nM]	solubility [6, 11] [µg/mL]	also measured
COc1ccc(-n2c(S[C@H](C)C(=O)Nc3ccc(C)cc3Cl)nc3ccccc32)cc1 [(R)-1]	880	160	> 50000	–	–	–
Cc1ccc(NC(=O)[C@@H](C)Sc2nc3ccccc3n2-c2ccccc2CN2CCN(C)CC2)c(Cl)c1 [(R)-14a]	470	120	–	–	–	–
Cc1ccc(NC(=O)[C@@H](C)Sc2nc3ccccc3n2-c2cccc(CCN3CCOCC3)c2)c(Cl)c1 [(R)-14b]	210	110	> 50000	–	–	–
Cc1ccc(NC(=O)[C@@H](C)Sc2nc3ccccc3n2-c2ccc(CCN3CCOCC3)cc2)c(Cl)c1 [(R)-14c]	530	120	–	–	–	–
COc1ccc(-n2c(S[C@@H](C)C(=O)Nc3ccc(C)cc3Cl)nc3ccccc32)cc1 [(S)-1]	37	5	> 50000	–	–	–
Cc1ccc(NC(=O)[C@H](C)Sc2nc3ccccc3n2-c2ccccc2CN2CCN(C)CC2)c(Cl)c1 [(S)-14a]	68	4	25000	–	–	–
Cc1ccc(NC(=O)[C@H](C)Sc2nc3ccccc3n2-c2cccc(CCN3CCOCC3)c2)c(Cl)c1 [(S)-14b]	11	1	> 50000	–	–	EC50 ([1]; WSN, read-out: EC50 values against the two viruses): 1 to 11 nM
Cc1ccc(NC(=O)[C@H](C)Sc2nc3ccccc3n2-c2ccc(CCN3CCOCC3)cc2)c(Cl)c1 [(S)-14c]	180	36	–	–	–	–
COc1ccc(-n2c(SC(C)C(=O)Nc3ccc(C)cc3Cl)nc3ccccc32)cc1 (stereo not shown) [Compound 1]	31	13	> 50000	3100	< 15	oral bioavailability [5]: low; solubility [6]: < 15 µg/mL; solubility [6, 9]: < 15 µg/mL; solubility [6, 10]: < 15 µg/mL
Cc1ccc(NC(=O)C(C)Sc2nc3ccccc3n2-c2ccccc2CN2CCN(C)CC2)c(Cl)c1 (stereo not shown) [Compound 14a]	41	8	–	179	20 (≈ 37.4 µM)	solubility [6, 9]: > 300 µg/mL; solubility [6, 10]: 92 µg/mL (≈ 172 µM)
Cc1ccc(NC(=O)C(C)Sc2nc3ccccc3n2-c2cccc(CCN3CCOCC3)c2)c(Cl)c1 (stereo not shown) [Compound 14b]	13	0.3	> 50000	200	15 (≈ 28 µM)	solubility [6, 9]: 158 µg/mL (≈ 295 µM); solubility [6, 10]: 33 µg/mL (≈ 61.7 µM)
Cc1ccc(NC(=O)C(C)Sc2nc3ccccc3n2-c2ccc(CCN3CCOCC3)cc2)c(Cl)c1 (stereo not shown) [Compound 14c]	110	43	–	600	25 (≈ 46.7 µM)	ΔEC50, (S)-enantiomer versus (R)-enantiomer ([1]; MeV and WSN EC50 comparisons): < 3 fold; solubility [6, 9]: 212 µg/mL (≈ 396 µM); solubility [6, 10]: 51 µg/mL (≈ 95.3 µM)
Cc1ccc(NC(=O)C(C)Sc2nc3ccccc3n2C2CCCN(C)C2)c(Cl)c1 (stereo not shown) [Compound 18b]	–	–	–	–	19 (≈ 42.9 µM)	IC50 [4]: > 290 nM
Cc1ccc(NC(=O)C(C)Sc2nc3ccccc3n2N2CCN(C)CC2)c(Cl)c1 (stereo not shown) [Compound 18c]	–	–	–	> 75000	< 15	–
Cc1ccc(NC(=O)C(C)Sc2nc3ccccc3n2CCN2CCOCC2)c(Cl)c1 (stereo not shown) [Compound 18d]	–	–	–	4900	22 (≈ 47.9 µM)	–
Cc1ccc(NC(=O)C(C)Sc2nc3ccccc3n2CCN2CCNCC2)c(Cl)c1 (stereo not shown) [Compound 18e]	–	–	–	> 75000	120 (≈ 262 µM)	solubility ([6]; pH 7.4): > 100 µg/mL
Cc1ccc(NC(=O)C(C)Sc2nc3ccccc3n2-c2cccc(CN3CCOCC3)c2)c(Cl)c1 (stereo not shown) [Compound 18f]	–	–	–	270	< 15	–
Cc1ccc(NC(=O)C(C)Sc2nc3ccccc3n2-c2cccc(CCn3ncnn3)c2)c(Cl)c1 (stereo not shown) [Compound 18g]	–	–	–	–	< 15	IC50 [7]: 50 nM

Source: publication PMC3566758 (Beilstein Journal of Organic Chemistry, 2013)
